Patent US20230174507A1, “IMIDAZOLE 3-OXIDE DERIVATIVE BASED ACSS2 INHIBITORS AND METHODS OF USE THEREOF” (METABOMED LTD., priority 2020, published 2023)

Assays:
[1] = target: T1, human ACSS1 protein (Homo sapiens, UniProt Q9NUB1); assay: ACSS1 cell-free activity assay (pyrophosphatase-coupled, Biomol green); type: biochemical; details: 5 nM human ACSS1, 30 minutes at room temperature, absorbance at 620 nm; for IC50: read-out: ACSS1 Biochemical IC50
T1 construct: purchased MyBioSource
T1 sequence (Q9NUB1 38-689): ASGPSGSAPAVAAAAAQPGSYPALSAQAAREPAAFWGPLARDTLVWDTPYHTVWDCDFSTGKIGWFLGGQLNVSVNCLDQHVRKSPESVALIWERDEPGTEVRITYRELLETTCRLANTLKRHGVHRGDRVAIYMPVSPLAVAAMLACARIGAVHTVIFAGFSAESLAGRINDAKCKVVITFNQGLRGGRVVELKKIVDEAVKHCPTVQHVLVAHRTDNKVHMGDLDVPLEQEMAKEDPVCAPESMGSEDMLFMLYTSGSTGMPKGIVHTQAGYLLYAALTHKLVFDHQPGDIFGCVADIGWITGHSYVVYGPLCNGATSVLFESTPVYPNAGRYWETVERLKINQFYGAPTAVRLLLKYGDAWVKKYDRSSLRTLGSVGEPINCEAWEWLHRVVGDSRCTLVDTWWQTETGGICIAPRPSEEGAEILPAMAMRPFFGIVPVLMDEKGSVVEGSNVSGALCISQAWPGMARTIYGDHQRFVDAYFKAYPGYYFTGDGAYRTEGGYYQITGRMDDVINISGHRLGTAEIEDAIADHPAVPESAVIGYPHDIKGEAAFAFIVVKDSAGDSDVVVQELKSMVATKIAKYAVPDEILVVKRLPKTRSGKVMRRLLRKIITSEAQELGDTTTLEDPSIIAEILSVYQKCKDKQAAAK
Outline: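 5 nM human ACSS1 incubated 30 min at RT with compound in pH 7.5 Hepes buffer with 15 μM CoA, 5 mM acetate, 300 μM ATP, 2 mM MgCl2 and pyrophosphatase. Released phosphate detected with Biomol Green (30 min), absorbance 620 nm. IC50 from constrained non-linear regression.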

[2] = target: T2, ACSS2 in MDA-MB-468 cells (Homo sapiens, UniProt Q9NR19); assay: Cellular fatty-acid IC50: 13C-acetate incorporation into fatty acids (palmitate), LC-MS; type: cell-based; details: hypoxic conditions (1% O2), 75% charcoal stripped serum, 5 hours, 13C-acetate into palmitate, read-out: Cellular Fatty-acid IC50 High Serum MDA468
T2 construct: endogenous in cells; host or cells: MDA-MB-468 cells, hypoxia (1% O2)
T2 sequence (Q9NR19 whole entry): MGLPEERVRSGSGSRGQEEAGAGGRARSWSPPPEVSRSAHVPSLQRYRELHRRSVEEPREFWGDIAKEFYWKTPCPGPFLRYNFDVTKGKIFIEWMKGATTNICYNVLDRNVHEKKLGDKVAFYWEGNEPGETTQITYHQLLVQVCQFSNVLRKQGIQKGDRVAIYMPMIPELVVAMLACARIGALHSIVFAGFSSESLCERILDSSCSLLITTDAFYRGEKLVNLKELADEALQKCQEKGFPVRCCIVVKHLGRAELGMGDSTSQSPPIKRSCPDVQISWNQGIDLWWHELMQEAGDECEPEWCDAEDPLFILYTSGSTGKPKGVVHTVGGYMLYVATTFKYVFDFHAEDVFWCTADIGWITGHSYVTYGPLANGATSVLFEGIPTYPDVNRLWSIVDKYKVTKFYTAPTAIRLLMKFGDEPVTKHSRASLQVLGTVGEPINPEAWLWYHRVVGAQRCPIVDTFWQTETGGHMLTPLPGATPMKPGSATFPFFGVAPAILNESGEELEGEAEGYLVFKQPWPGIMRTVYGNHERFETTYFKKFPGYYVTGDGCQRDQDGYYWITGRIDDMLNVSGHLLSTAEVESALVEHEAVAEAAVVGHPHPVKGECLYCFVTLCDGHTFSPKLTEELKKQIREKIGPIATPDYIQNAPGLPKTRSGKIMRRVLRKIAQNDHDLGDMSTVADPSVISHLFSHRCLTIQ
Experimental: Cellular Fatty-Acid IC50 Determination:
The cellular activity of ACSS2 was measured in MDA-MB-468 cells under hypoxic conditions by tracing the incorporation of labelled carbons from ^13C-acetate into newly synthesized fatty acids. The assay was performed using 75% charcoal stripped serum (high serum conditions).
MDA-MB-468 cells were seeded in 12-well plates (0.35×10^6 cells per well) in plating medium (Dulbecco's Modified Eagle Medium containing 25 mM D-glucose, 1 mM sodium pyruvate, 10% v/v fetal bovine serum, and 2 mM glutamine) and incubated for 24 hours under hypoxic conditions (1% O2).
The next day, tracing medium containing DMEM (01-057-1A) containing 75% charcoal stripped serum (Biological industries 04-201-1A), 3.5 μg/mL Biotin (Sigma-Aldrich B4639), 1 mM Pyruvate, 5.5 mM Glucose, 0.65 mM Glutamine and 0.5 mM ^13C-Acetate (Sigma-Aldrich #282014) with serial dilutions of the compounds in the range of 0.000512-1000 nM were prepared. The plating medium was replaced with 1 mL tracing medium plus compounds and the cells were incubated for 5 hours under hypoxic conditions (1% O2). Plating medium in control wells (without cells or without compounds) was replaced with 1 mL tracing medium containing 0.01% v/v DMSO.
The level of ^13C-acetate incorporation into fatty acids (palmitate) was measured by LC-MS analysis and IC50 as described below:
Sample Preparation for LC-MS
• a) Cells were washed twice with cold phosphate buffered saline (PBS), scraped into 0.5 mL EDTA pH 8.0, and transferred into 1.1 mL V-shaped HPLC glass tubes. • b) The cell suspensions were centrifuged for 5 minutes at 400×g, 4° C. and the supernatants were removed. • c) Cell pellets were frozen at −80° C.
• d) Cell pellets were resuspended in 0.2 mL of 80% v/v ethanol in water containing 0.02 M NaOH in 1.1 ml glass (v-bottom) HPLC vials. • e) The vials were closed tight and incubated at 66° C. for 60 minutes. • f) Acetonitrile containing 2% v/v formic acid (150 μL) was added to each vial and the mixtures were transferred to Eppendorf tubes for centrifugation at 17 000×g for 20 minutes. • g) Supernatants were transferred to LC-MS vials.
The relative palmitate concentration was measured by LC-MS in reconstructed selected ion monitoring (RSIM) mode and negative ion mode. Samples were analyzed on a Phenomenex Kinetex 2.6 μm XB-C18 150×2.1 mm column at 45° C. (0.4 mL/minute flow rate) using: • a) A gradient from 15% A/85% C to 100% C for 0 to 2 minutes (A: water containing 5% v/v acetonitrile, 10 mM ammonium acetate, and 10 mM acetic acid; C: a mixture of 50% v/v acetonitrile and 50% v/v methanol). • b) Isocratic flow (100% C) for 2 to 5 minutes. • c) Equilibration in isocratic conditions (15% A/85% C) for 5 to 8 minutes.
Palmitate was eluted at approximately 3.4 minutes.
The percent inhibition was calculated relative to the sample without compound and after background deduction. IC50 values were calculated using non-linear regression curve fit analysis with 0% and 100% constraints (CDD Vault, Collaborative Drug Discovery, Inc. or GraphPad Prism).
The inhibitory activities of each compound against ACSS2 in MDA-MB-468 cells under high serum conditions, as determined by ^13C-acetate incorporation into fatty acids (palmitate), are presented in Table 2.

[3] = target: T3, human ACSS2 protein (Homo sapiens, UniProt Q9NR19); assay: ACSS2 cell-free activity assay (pyrophosphatase-coupled, Biomol green); details: 10 nM human ACSS2, 90 minutes at 37 C, absorbance at 620 nm; read-out: ACSS2 Biochemical IC50
T3 construct: purchased OriGene Technologies, Inc
T3 sequence (Q9NR19 whole entry): as above
Outline: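 10 nM human ACSS2 incubated 90 min at 37 C with compound, 300 μM ATP, 10 μM CoA, 5 mM NaAc in pH 7.5 Hepes buffer with 0.5 U/ml pyrophosphatase. Released phosphate detected with Biomol Green at 620 nm; IC50 by non-linear regression constrained to 0% and 100%.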

SMILES | ACSS1 Biochemical IC50 (nM) [1] | IC50 [2] [nM] | IC50 [3] [nM] | IC50 [1] [nM]
CCC(F)(F)c1cccc(NC(=O)c2c(C)[nH]c(-c3ccc(OC)c(-c4ncccc4C)c3)[n+]2[O-])c1 [Compound 100, 4-((3-(1,1-difluoropropyl)phenyl)carbamoyl)-2-(4-methoxy-3-(3-methylpyridin-2-yl)phenyl)-5-methyl-1H-imidazole 3-oxide] | Inactive | < 20 |  | 
CCC(F)(F)c1cccc(NC(=O)c2c(C)[nH]c(-c3ccc(OC)cc3)[n+]2[O-])c1 [Compound 101, 4-((3-(1,1-difluoropropyl)phenyl)carbamoyl)-2-(4-methoxyphenyl)-5-methyl-1H-imidazole 3-oxide] | Inactive | 20 to 50 |  | 
CCC(F)(F)c1cccc(NC(=O)c2c(C)[nH]c(-c3ccc(OC)c(-c4c(C)cccc4C)c3)[n+]2[O-])c1 [Compound 102, 4-((3-(1,1-difluoropropyl)phenyl)carbamoyl)-2-(6-methoxy-2′,6′-dimethyl-[1,1′-biphenyl]-3-yl)-5-methyl-1H-imidazole 3-oxide] | Inactive | < 20 | < 1 | 
CCC(F)(F)c1cccc(NC(=O)c2c(C)[nH]c(-c3ccc(OC(F)F)c(-c4c(C)cccc4C)c3)[n+]2[O-])c1 [Compound 103, 2-(6-(difluoromethoxy)-2′,6′-dimethyl-[1,1′-biphenyl]-3-yl)-4-((3-(1,1-difluoropropyl)phenyl)carbamoyl)-5-methyl-1H-imidazole 3-oxide] | Inactive | 20 to 50 | < 1 | 
COc1ccc(-c2[nH]c(C)c(C(=O)Nc3cccc(C(F)(F)C4CC4)c3)[n+]2[O-])cc1-c1c(C)cccc1C [Compound 104, 4-((3-(cyclopropyldifluoromethyl)phenyl)carbamoyl)-2-(6-methoxy-2′,6′-dimethyl-[1,1′-biphenyl]-3-yl)-5-methyl-1H-imidazole 3-oxide] | Inactive | 20 to 50 | < 1 | 
COc1ccc(-c2[nH]c(C)c(C(=O)Nc3cccc(C(F)(F)C4CC4)c3)[n+]2[O-])cc1-c1c(C)cncc1C [Compound 105, 4-((3-(cyclopropyldifluoromethyl)phenyl)carbamoyl)-2-(3-(3,5-dimethylpyridin-4-yl)-4-methoxyphenyl)-5-methyl-1H-imidazole 3-oxide] | Inactive | < 20 | < 1 | 
CCC(F)(F)c1cccc(NC(=O)c2c(C)[nH]c(-c3cc(C)cc(-c4c(C)cccc4C)c3)[n+]2[O-])c1 [Compound 106, 4-((3-(1,1-difluoropropyl)phenyl)carbamoyl)-5-methyl-2-(2′,5,6′-trimethyl-[1,1′-biphenyl]-3-yl)-1H-imidazole 3-oxide] | Inactive | > 50 | < 1 | 
CCC(F)(F)c1cccc(NC(=O)c2c(C)[nH]c(-c3cccc(-c4c(C)cccc4C)c3)[n+]2[O-])c1 [Compound 107, 4-((3-(1,1-difluoropropyl)phenyl)carbamoyl)-2-(2′,6′-dimethyl-[1,1′-biphenyl]-3-yl)-5-methyl-1H-imidazole 3-oxide] | Inactive | < 20 | < 1 | 
CCC(F)(F)c1cccc(NC(=O)c2c(C)[nH]c(-c3ccc(Cl)c(-c4c(C)cccc4C)c3)[n+]2[O-])c1 [Compound 108, 2-(6-chloro-2′,6′-dimethyl-[1,1′-biphenyl]-3-yl)-4-((3-(1,1-difluoropropyl)phenyl)carbamoyl)-5-methyl-1H-imidazole 3-oxide] | Inactive | 20 to 50 | < 1 | 

Further lines, results first:

ACSS1 Biochemical IC50 (nM) [1] | IC50 [2] [nM] | IC50 [3] [nM] | IC50 [1] [nM] | SMILES
Inactive | < 20 | < 1 |  | CCC(F)(F)c1cccc(NC(=O)c2c(C)[nH]c(-c3cccc(-c4ncncc4C)c3)[n+]2[O-])c1 [Compound 109, 4-((3-(1,1-difluoropropyl)phenyl)carbamoyl)-5-methyl-2-(3-(5-methylpyrimidin-4-yl)phenyl)-1H-imidazole 3-oxide]
 | < 20 | < 1 | > 30 | CCC(F)(F)c1cccc(NC(=O)c2c(C)[nH]c(-c3cccc(-c4nccnc4C)c3)[n+]2[O-])c1 [Compound 110, 4-((3-(1,1-difluoropropyl)phenyl)carbamoyl)-5-methyl-2-(3-(3-methylpyrazin-2-yl)phenyl)-1H-imidazole 3-oxide]
Inactive | > 50 | < 1 |  | CCC(F)(F)c1cccc(NC(=O)c2c(C)[nH]c(-c3cccc(-c4c(C)cccc4C)n3)[n+]2[O-])c1 [Compound 111, 4-((3-(1,1-difluoropropyl)phenyl)carbamoyl)-2-(6-(2,6-dimethylphenyl)pyridin-2-yl)-5-methyl-1H-imidazole 3-oxide]
 | < 20 | < 1 | > 30 | CCC(F)(F)c1cccc(NC(=O)c2c(C)[nH]c(-c3cccc(-c4c(C)ncnc4C)c3)[n+]2[O-])c1 [Compound 112, 4-((3-(1,1-difluoropropyl)phenyl)carbamoyl)-2-(3-(4,6-dimethylpyrimidin-5-yl)phenyl)-5-methyl-1H-imidazole 3-oxide]
Inactive | 20 to 50 | < 1 |  | Cc1cccc(C)c1-c1cc(-c2[nH]c(C)c(C(=O)Nc3cccc(C(F)(F)C4CC4)c3)[n+]2[O-])ccc1OC(F)F [Compound 113, N-[3-[cyclopropyl(difluoro)methyl]phenyl]-2-[4-(difluoromethoxy)-3-(2,6-dimethylphenyl)phenyl]-5-methyl-3-oxido-1H-imidazol-3-ium-4-carboxamide]
 | < 20 | < 1 | > 30 | CCC(F)(F)c1cccc(NC(=O)c2c(C)[nH]c(-c3ccc(C#N)c(-c4c(C)cccc4C)c3)[n+]2[O-])c1 [Compound 114, 2-(6-cyano-2′,6′-dimethyl-[1,1′-biphenyl]-3-yl)-4-((3-(1,1-difluoropropyl)phenyl)carbamoyl)-5-methyl-1H-imidazole 3-oxide]
